# What was measured:
# [1] = tested on: cortical neuronal cultures; experiment: Sublethal stretch injury with or without NMDA, cell death in cortical cultures; format: cell-based
# Procedure: […]. In brief, cerebral cortices from 10 to 12 embryos were incubated for 10 min in 0.05% trypsin-EDTA, dissociated by trituration, and plated on flexible membranes coated with poly-L-ornithine in 6 well plates (Flexcell International Corporation, Hillsborough, N.C.) at a density of 3.25×10^6 cells per well. Plating medium consisted of DMEM supplemented with 10% heat-inactivated horse serum (Gibco) and (in mM) 2 glutamine, 25 glucose, and 26 bicarbonate. The cultures were maintained at 37° C. in a humidified 5% CO2 atmosphere. After 3 days in vitro, growth of non-neuronal cells was halted by a 48 h exposure to 10 μM FDU-solution (5 μM uridine, 5 μM (+)-5-fluor-2′-deoxyuridine). This produces cultures in which >85% of the cells are neurons, based on immunohistochemical staining for glial fibrillary associated protein (exclusive to astrocytes), and for the NMDAR1 subunit (not shown). The cultures were used for experiments after 12-14 days in vitro.
# The cultures, grown on silastic membranes as above, were placed in the Flexercell® FX-3000™ Strain Unit (Flexcell Int., Inc.), a computer-driven instrument that uses a vacuum pulse to deform the culture substrate. In all experiments, the cortical cultures were stretched to 130% of their original length for 1 s, inducing a sublethal injury as recently characterized by us (Arundine et al., 2003). The stretched neurons maintained cell membrane integrity, viability, and electrophysiological function.
# Cell death was determined by serial quantitative measurements of propidium iodide (PI) fluorescence using a multiwell plate fluorescence scanner (Cytofluor II, PerSeptive Biosytems, Framingham, Mass., USA) as described previously (Sattler et al., 1997; Sattler et al., 1998). In brief, the culture medium in each tissue culture well was replaced with control solution containing 50 μg/ml PI, and a baseline fluorescence reading was taken. Sequential readings were then taken at appropriate intervals over the 20 h observation period. The fraction of dead cells in each culture at a given time was calculated as: Fraction dead=(Ft−Fo)/FNMDA Where Ft=PI fluorescence at time t, F0=initial PI fluorescence at time zero and FNMDA=background subtracted PI fluorescence of identical cultures from the same dissection and plating, 20-24 h after a 60 min exposure to 1 mM NMDA at 37° C. Based on manual observations at the time of validation of this technique, this NMDA exposure routinely produced near complete neuronal death in each culture but had no effect on surrounding glia (also see (Bruno et al., 1994; David et al., 1996; Sattler et al., 1997)). Adding Triton X-100 (0.1%) to cultures treated in this manner produced an additional 10-15% increase in PI fluorescence due to permeabilization of non-neuronal cell membranes, consistent with a 10-15% glial component in the cultures.
# All experiments were performed at 37° C. Unless otherwise indicated, all solutions contained nimodipine (2 μM) and CNQX (10 μM) to restrict the actions of applied NMDA to NMDARs by preventing the secondary activation of other pathways (Sattler et al., 1998). In general, the cultures were washed ×2 with control solution and immediately stretched to 130% of their original length for 1 s. After the stretch, they were washed ×1 with control solution alone or challenged with an additional treatment (e.g., NMDA) and placed at 37° C. for 1 h. They were then washed ×1 with control solution and then with control solution containing 50 μg/ml PI to obtain a baseline reading. In pilot studies, baseline readings obtained at this stage were similar to those obtained by staining the cells with PI prior to stretch. As the stretch causes splashing of the bath solution, staining with PI after stretch reduced biohazard potential and artifacts associated with PI outside the culture well. Unstretched controls were manipulated identically to stretched cultures.
# [2] = tested on: cultured cortical neurons; experiment: NMDA excitotoxicity in cultured cortical neurons (propidium iodide fluorescence); format: cell-based, mouse
# [3] = tested on: transient middle cerebral artery occlusion; experiment: Transient MCAO, pre-treatment study; format: in vivo, Sprague-Dawley rats
# Procedure: Next, I examined whether pretreatment with Tat-peptides would reduce stroke damage. Experiments were carried out in adult male Sprague-Dawley rats subjected to transient middle cerebral artery occlusion (MCAO) for 90 minutes by the intraluminal suture method (36,37). Animals were fasted overnight and injected with atropine sulfate (0.5 mg/kg IP). After 10 minutes anesthesia was induced with 3.5% halothane in a mixture of nitrous oxide and oxygen (Vol. 2:1) and maintained with 0.8% halothane. Rats were orally intubated, mechanically ventilated, and paralyzed with pancuronium bromide (0.6 mg/kg IV). Body temperature was maintained at 36.5-37.5° C. with a heating lamp. Polyethylene catheters in the femoral artery and vein were used to continuously record blood pressure and to sample blood for gas and pH measurements. […] This produces an extensive infarction encompassing the cerebral cortex and basal ganglia. […] Physiological parameters (body temperature, blood pressure, blood gases) were monitored and maintained throughout the experiment (Table 1). All experimental manipulations and analyses of data were performed by individuals blinded to the treatment groups. The extent of cerebral infarction was measured 24 h after MCAO onset (FIG. 7C inset). The postural reflex test (38), and the forelimb placing test (39) were used to grade neurological function on a scale of 0 to 12 (normal=0; worst=12) during MCAO (at 50 minutes) and 24 h thereafter.
# [4] = tested on: nitrotyrosine; experiment: Nitrotyrosine immunostaining (peroxynitrite formation); format: cell-based, mouse; conditions: pretreatment, 12 h post-NMDA challenge
# Procedure: Cultures were fixed with warm 4% paraformaldehyde and 4% sucrose in PBS for 20 min, permeabilized with 0.1% Triton X-100 for 10 min at 4° C., and blocked with 10% goat serum in PBS for 1 h at RT. Immunofluorescence was visualized with an inverted Nikon microscope using a 40× oil immersion lens. FITC, rhodamine and Hoechst were visualized using 465-495 excitation and 515-555 nm emission, 510-560 nm excitation and 590 nm emission, and 340 nm excitation and 510 nm emission, respectively. Active caspase 3 was labelled by incubating the cultures with a purified rabbit monoclonal anti-active caspase 3 antibody (1:300; BD PharMingen) and a fluorescein-conjugated goat anti-mouse IgG secondary antibody (1:500; Transduction Labs). Nitrotyrosine was labelled by incubating the cultures with a rabbit polyclonal α-nitrotyrosine primary antibody (1:300; Upstate) and a rhodamine-conjugated goat anti-rabbit IgG secondary antibody (1:500; Transduction Labs). AIF was labelled by incubating the cultures with an AIF antibody (1:200; Santa Cruz, (Zhang et al., 2002)) and a rhodamine-conjugated goat anti-mouse IgG secondary antibody (1:500; Transduction Labs). In some experiments, nuclei were counter-stained with Hoechst 33258 (1:5,000, Transduction Labs).
substance,measurement,setting,value
Tat-KLSSIESDV [Tat-NR2B9c],toxic effects in control or stretched cultures,[1]; 50 nM,no toxic effects
same,"heightened vulnerability of stretched cultures to NMDA toxicity, pre-treatment","[1]; 50 nM 30 min prior to stretch, NMDA 30 μM 1 h, cell death at 20 h",completely abolished
same,"enhanced cell mortality in stretched neurons by NMDA challenge, post-treatment",[1]; 50 nM applied after terminating the 1 h NMDA challenge,reduced the enhanced cell mortality
same,"vulnerability of neurons to NMDA toxicity, post-treatment","[2]; 50 nM applied after 1 h NMDA challenge (0-100 μM), cell death at 20 h",significantly reduced
same,"NMDA-evoked cell death, pre-treatment","[2]; 50 nM for 1 h, then NMDA 0-100 μM 1 h, 20 h observation",significantly reduced
same,reduction in cortical infarction,"[3]; 3 nMoles/g i.v. 45 min prior to MCAO, 24 h after MCAO onset",70.7±11.23%
same,reduction of volume of total cerebral infarction,"[3]; 3 nMoles/g i.v. 45 min prior to MCAO, 24 h after MCAO onset, vs controls",54.6±11.27%
same,24 h neurological scores,[3]; 3 nMoles/g i.v. bolus 45 min prior to MCAO,trend toward improvement
same,nitrotyrosine immunoreactivity,[4],reduced nitrotyrosine immunoreactivity

# Source: patent US8071548B2, “Method of reducing injury to mammalian cells” (Nono, Inc., priority 2002, dated 2011)
